Laboratory results published in US8163921B2, “Hepatitis C virus inhibitors” (Bristol-Myers Squibb Company, priority 2008, dated 2012).
Read-outs that look alike come from different tables or passages of the source.

Legend:
[1] = system: HCV replicon in HUH-7 cells; test: HCV replicon FRET assay; assay type: cell-based, HCV strain 1b; settings: Hepatitis C virus
Source text: An HCV replicon whole cell system was established as described by Lohmann V, Korner F, Koch J, Herian U, Theilmann L, Bartenschlager R., Science 285(5424):110-3 (1999). This system enabled us to evaluate the effects of our HCV Protease compounds on HCV RNA replication. Briefly, using the HCV strain 1b sequence described in the Lohmann paper (Assession number:AJ238799), an HCV cDNA was synthesized by Operon Technologies, Inc. (Alameda, Calif.), and the full-length replicon was then assembled in plasmid pGem9zf(+) (Promega, Madison, Wis.) using standard molecular biology techniques. The replicon consists of (i) the HCV 5′ UTR fused to the first 12 amino acids of the capsid protein, (ii) the neomycin phosphotransferase gene (neo), (iii) the IRES from encephalomyocarditis virus (EMCV), and (iv) HCV NS3 to NS5B genes and the HCV 3′ UTR. Plasmid DNAs were linearized with ScaI and RNA transcripts were synthesized in vitro using the T7 MegaScript transcription kit (Ambion, Austin, Tex.) according to manufacturer's directions. In vitro transcripts of the eDNA were transfected into the human hepatoma cell line, HUH-7. […] Resulting cell lines were characterized for positive and negative strand RNA production and protein production over time.
The HCV replicon FRET assay was developed to monitor the inhibitory effects of compounds described in the disclosure on HCV viral replication. HUH-7 cells, constitutively expressing the HCV replicon, were grown in Dulbecco's Modified Eagle Media (DMEM) (Gibco-BRL) containing 10% Fetal calf serum (FCS) (Sigma) and 1 mg/ml G418 (Gibco-BRL). Cells were seeded the night before (1.5×10^4 cells/well) in 96-well tissue-culture sterile plates. Compound and no compound controls were prepared in DMEM containing 4% FCS, 1:100 Penicillin/Streptomysin (Gibco-BRL), 1:100 L-glutamine and 5% DMSO in the dilution plate (0.5% DMSO final concentration in the assay). Compound/DMSO mixes were added to the cells and incubated for 4 days at 37° C. After 4 days, cells were first assessed for cytotoxicity using alamar Blue (Trek Diagnotstic Systems) for a CC50 reading. The toxicity of compound (CC50) was determined by adding 1/10th volume of alamar Blue to the media incubating the cells. After 4 h, the fluorescence signal from each well was read, with an excitation wavelength at 530 nm and an emission wavelength of 580 nm, using the Cytofluor Series 4000 (Perspective Biosystems). Plates were then rinsed thoroughly with Phosphate-Buffered Saline (PBS) (3 times 150 μl).

[2] = biological target: T1, HCV NS3/4A protease complex, BMS strain (UniProt P27958, C1454S/C1711G, species not given); test: FRET peptide assay to monitor HCV NS3/4A proteolytic activity (BMS strain); assay type: biochemical, HCV genotype 1a; settings: read-out: IC50 Range, HCV NS3/4A enzyme assay
T1 construct: other: HCV NS3/4A enzyme assay; class symbols; numeric values; fused on or other part: three-lysine solubilising tail at the C-terminus of NS4A; purified on Ni-NTA from the pET21b vector (His tag implied)
Summary of the method: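 Recombinant HCV NS3/4A protease complex (BMS strain, genotype 1a), 2-3 nM final (300 pM with 50 μg/ml BSA for very potent compounds), incubated with RET S1 EDANS/DABCYL depsipeptide substrate at 2 μM final. Buffer: 50 mM HEPES pH 7.5, 0.15 M NaCl, 0.1% Triton, 15% glycerol, 10 mM βME. Cleavage followed in real time by fluorescence.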

[3] = Huh-7, HCV replicon cell assay, numeric values, read-out: EC50 Range

Row | Compound | EC50 ([1]; Huh-7, read-out: EC50 Range) [nM] | IC50 ([2]; class symbols) [nM] | EC50 [1, 3] [nM] | IC50 ([2]; numeric values) [nM]
1 | C=C[C@@H]1C[C@]1(NC(=O)[C@@H]1C[C@@H](Oc2ncc(OC)c3ccc(Cl)cc23)CN1C(=O)[C@@H](Nc1nc(-c2ccc(C(=O)O)cc2)cs1)C(C)(C)C)C(=O)NS(=O)(=O)C1CC1 [Example 46] | 1 to 50 | 1 to 20 | – | –
2 | C=C[C@@H]1C[C@]1(NC(=O)[C@@H]1C[C@@H](Oc2ncc(OC)c3ccc(Cl)cc23)CN1C(=O)[C@@H](Nc1nc(-c2ccc(Cl)c(Cl)c2)cs1)C(C)(C)C)C(=O)NS(=O)(=O)C1CC1 [Example 29] | 1 to 50 | 1 to 20 | – | –
3 | C=C[C@@H]1C[C@]1(NC(=O)[C@@H]1CC(Oc2ncc(OC)c3ccc(Cl)cc23)CN1C(=O)[C@@H](Nc1nc(-c2nc3ccccc3n2C)cs1)C(C)(C)C)C(=O)NS(=O)(=O)C1CC1 (some centres unmarked) [Example 42] | 1 to 50 | 1 to 20 | – | –
4 | C=C[C@@H]1C[C@]1(NC(=O)[C@@H]1C[C@@H](Oc2ncc(OC)c3ccc(Cl)cc23)CN1C(=O)[C@@H](Nc1nc(-c2cc(C(F)(F)F)cc(C(F)(F)F)c2)cs1)C(C)(C)C)C(=O)NS(=O)(=O)C1CC1 [Example 22] | 1 to 50 | 1 to 20 | – | –
5 | C=C[C@@H]1C[C@]1(NC(=O)[C@@H]1C[C@@H](Oc2ncc(OC)c3ccc(Cl)cc23)CN1C(=O)[C@@H](Nc1nc(-c2cc(Cl)cc(Cl)c2F)cs1)C(C)(C)C)C(=O)NS(=O)(=O)C1CC1 [Example 53] | – | – | 20.3 | 17
6 | C=C[C@@H]1C[C@]1(NC(=O)[C@@H]1C[C@@H](Oc2ncc(OC)c3ccc(Cl)cc23)CN1C(=O)[C@@H](Nc1nc(-c2ccc(C)cc2C)cs1)C(C)(C)C)C(=O)NS(=O)(=O)C1CC1 [Example 34] | 1 to 50 | 1 to 20 | – | –
7 | C=C[C@@H]1C[C@]1(NC(=O)[C@@H]1C[C@@H](Oc2ncc(OC)c3ccc(Cl)cc23)CN1C(=O)C(C)Nc1nnnn1-c1ccccc1)C(=O)NS(=O)(=O)C1CC1 (some centres unmarked) [Example 100] | – | – | 334 | 795
8 | COc1cnc(O[C@@H]2C[C@@H](C(=O)N[C@]3(C(=O)NS(=O)(=O)C4CC4)C[C@H]3CC(F)F)N(C(=O)[C@@H](Nc3nc(-c4cc(-c5ccc(Cl)cc5)no4)cs3)C(C)(C)C)C2)c2cc(Cl)ccc12 [Example 98] | 1 to 50 | 1 to 20 | – | –
9 | C=C[C@@H]1C[C@]1(NC(=O)[C@@H]1C[C@@H](Oc2ncc(OC)c3ccc(Cl)cc23)CN1C(=O)[C@@H](Nc1nc(-c2cccnc2)cs1)C(C)(C)C)C(=O)NS(=O)(=O)C1CC1 [Example 15] | 1 to 50 | 1 to 20 | – | –
10 | C=C[C@@H]1C[C@]1(NC(=O)[C@@H]1C[C@@H](Oc2ncc(OC)c3ccc(Cl)cc23)CN1C(=O)[C@@H](Nc1nc(-c2cc(OC)ccc2OC)cs1)C(C)(C)C)C(=O)NS(=O)(=O)C1CC1 [Example 30] | 1 to 50 | 1 to 20 | – | –
11 | C=C[C@@H]1C[C@]1(NC(=O)[C@@H]1C[C@@H](Oc2ncc(OC)c3ccc(Cl)cc23)CN1C(=O)[C@@H](Nc1nc(-c2cc(Cl)cc(Cl)c2OC)cs1)C(C)(C)C)C(=O)NS(=O)(=O)C1CC1 [Example 55] | 1 to 50 | 1 to 20 | – | –
12 | C=C[C@@H]1C[C@]1(NC(=O)[C@@H]1C[C@@H](Oc2cc(-c3ccccc3)nc3cc(OC)ccc23)CN1C(=O)[C@@H](Nc1nc(-c2ccccc2)cs1)C(C)(C)C)C(=O)NS(=O)(=O)C1CC1 [Example 1] | 1 to 50 | 1 to 20 | – | –
13 | C=C[C@@H]1C[C@]1(NC(=O)[C@@H]1C[C@@H](Oc2ncc(OC)c3ccc(Cl)cc23)CN1C(=O)[C@@H](Nc1nc(-c2ccc(C(F)(F)F)cc2)cs1)C(C)(C)C)C(=O)NS(=O)(=O)C1CC1 [Example 10, (2S,4R)-4-(7-chloro-4-methoxyisoquinolin-1-yloxy)-N-((1R,2S)-1-(cyclopropylsulfonylcarbamoyl)-2-vinylcyclopropyl)-1-((S)-3,3-dimethyl-2-(4-(4-(trifluoromethyl)phenyl)thiazol-2-ylamino)butanoyl)pyrrolidine-2-carboxamide] | 1 to 50 | 1 to 20 | – | –
14 | C=C[C@@H]1C[C@]1(NC(=O)[C@@H]1C[C@@H](Oc2ncc(OC)c3ccc(Cl)cc23)CN1C(=O)[C@@H](Nc1nc(-c2cc(C)ccc2OC)cs1)C(C)(C)C)C(=O)NS(=O)(=O)C1CC1 [Example 54] | 1 to 50 | 1 to 20 | – | –
15 | C=C[C@@H]1C[C@]1(NC(=O)[C@@H]1C[C@@H](Oc2ncc(OC)c3ccc(Cl)cc23)CN1C(=O)[C@@H](Nc1nc(-c2cccc(Cl)c2)cs1)C(C)(C)C)C(=O)NS(=O)(=O)C1CC1 [Example 48] | 1 to 50 | 1 to 20 | – | –
16 | C=C[C@@H]1C[C@]1(NC(=O)[C@@H]1C[C@@H](Oc2ncc(OC)c3ccc(Cl)cc23)CN1C(=O)[C@@H](Nc1nc(-c2ccncc2)cs1)C(C)(C)C)C(=O)NS(=O)(=O)C1CC1 [Example 16] | – | – | 6.57 | 1
17 | C=C[C@@H]1C[C@]1(NC(=O)[C@@H]1C[C@@H](Oc2ncc(OC)c3ccc(Cl)cc23)CN1C(=O)[C@@H](Nc1nc(-c2ccc(Cl)c(C)c2)cs1)C(C)(C)C)C(=O)NS(=O)(=O)C1CC1 [Example 27] | – | – | 5.26 | 2
18 | C=C[C@@H]1C[C@]1(NC(=O)[C@@H]1C[C@@H](Oc2cc(-c3ccccc3)nc3cc(OC)ccc23)CN1C(=O)[C@@H](Nc1nc(-c2ccc(OC)cc2)cs1)C(C)(C)C)C(=O)NS(=O)(=O)C1CC1 [Example 4] | 1 to 50 | 1 to 20 | – | –
19 | C=C[C@@H]1C[C@]1(NC(=O)[C@@H]1C[C@@H](Oc2ncc(OC)c3ccc(Cl)cc23)CN1C(=O)[C@@H](Nc1nc(-c2cccc(F)c2)cs1)C(C)(C)C)C(=O)NS(=O)(=O)C1CC1 [Example 43] | 1 to 50 | 1 to 20 | – | –
20 | C=C[C@@H]1C[C@]1(NC(=O)[C@@H]1C[C@@H](Oc2ncc(OC)c3ccc(Cl)cc23)CN1C(=O)[C@@H](Nc1nc(-c2cccc(C#N)c2)cs1)C(C)(C)C)C(=O)NS(=O)(=O)C1CC1 [Example 25] | 1 to 50 | 1 to 20 | – | –
21 | C=C[C@@H]1C[C@]1(NC(=O)[C@@H]1C[C@@H](Oc2ncc(OC)c3ccc(Cl)cc23)CN1C(=O)[C@@H](Nc1nc(-c2ccc(OC)cc2OC)cs1)C(C)(C)C)C(=O)NS(=O)(=O)C1CC1 [Example 28] | 1 to 50 | 1 to 20 | – | –
22 | C=C[C@@H]1C[C@]1(NC(=O)[C@@H]1C[C@@H](Oc2ncc(OC)c3ccc(Cl)cc23)CN1C(=O)[C@@H](Nc1nc(-c2cccc(OC)c2)cs1)C(C)(C)C)C(=O)NS(=O)(=O)C1CC1 [Example 35] | 1 to 50 | 1 to 20 | – | –
23 | C=C[C@@H]1C[C@]1(NC(=O)[C@@H]1C[C@@H](Oc2ncc(OC)c3ccc(Cl)cc23)CN1C(=O)[C@@H](Nc1nc(-c2ccc(Cl)cc2)cs1)C(C)(C)C)C(=O)NS(=O)(=O)C1CC1 [Example 38] | 1 to 50 | 1 to 20 | – | –
24 | C=C[C@@H]1C[C@]1(NC(=O)[C@@H]1C[C@@H](Oc2ncc(OC)c3ccc(Cl)cc23)CN1C(=O)[C@@H](Nc1nc(-c2ccc(F)cc2)cs1)C(C)(C)C)C(=O)NS(=O)(=O)C1CC1 [Example 32] | 1 to 50 | 1 to 20 | – | –
25 | C=C[C@@H]1C[C@]1(NC(=O)[C@@H]1C[C@@H](Oc2ncc(OC)c3ccc(Cl)cc23)CN1C(=O)[C@@H](Nc1nc(-c2ccc(C)cc2)cs1)C(C)(C)C)C(=O)NS(=O)(=O)C1CC1 [Example 23] | 1 to 50 | 20 to 200 | – | –
26 | C=C[C@@H]1C[C@]1(NC(=O)[C@@H]1C[C@@H](Oc2ncc(OC)c3ccc(Cl)cc23)CN1C(=O)[C@@H](Nc1nc(-c2cc(C)c(Cl)cc2F)cs1)C(C)(C)C)C(=O)NS(=O)(=O)C1CC1 [Example 92] | 1 to 50 | 1 to 20 | – | –
27 | C=C[C@@H]1C[C@]1(NC(=O)[C@@H]1C[C@@H](Oc2ncc(OC)c3ccc(Cl)cc23)CN1C(=O)[C@@H](Nc1nc(-c2ccccn2)cs1)C(C)(C)C)C(=O)NS(=O)(=O)C1CC1 [Example 14] | 1 to 50 | 1 to 20 | – | –
28 | C=C[C@@H]1C[C@]1(NC(=O)[C@@H]1C[C@@H](Oc2ncc(OC)c3ccc(Cl)cc23)CN1C(=O)[C@@H](Nc1nc(-c2c(F)c(F)c(F)c(F)c2F)cs1)C(C)(C)C)C(=O)NS(=O)(=O)C1CC1 [Example 47] | 1 to 50 | 1 to 20 | – | –
